Source: patent publication US6846843B2, “β-thioamino acids” (Gruenenthal GmbH, priority 2000, dated 2005)
Read-outs that look alike come from different tables or passages of the source.

Columns and labels:
[1] = tested on: phenylquinone-induced writhing reactions; test: Phenylquinone-induced writhing test in mice; format: in vivo; conditions: iv, read-out: Writhing Mouse i.v. ED50
Procedure: The antinociceptive effectiveness of the compounds according to the invention was investigated in mice using the phenylquinone-induced writhing test as modified by I. C. Hendershot and J. Forsaith, J. Pharmacol. Exp. Ther. 125, 237-240 (1959)). Male NMRI mice weighing 25-30 g were used for this purpose. Groups of 10 animals per substance dose were given intraperitoneally 10 minutes after intravenous administration of a compound according to the invention, 0.3 ml/mouse of a 0.02% aqueous solution of phenylquinone (phenylbenzoquinone, from Sigma, Deisenhofen; solution prepared by addition of 5% of ethanol and storage in a water bath at 45° C.). The animals were placed individually in observation cages. The number of pain-induced stretching movements (so-called writhing reactions=contortion of the body accompanied by stretching of the rear extremities) 5-20 minutes after administration of the phenylquinone were counted using a push-button counter. Animals that had received physiological saline solution i.v. and phenylquinone […]. served as controls.
All substances were tested in the standard dose of 10 mg/kg.

[2] = tested on: formalin-induced nociception; test: Formalin test on mice (second phase); format: in vivo; conditions: read-out: Mouse Formalin Test ED50
Procedure: The investigations to determine the antinociceptive action of the compounds according to the invention were carried out by the formalin test on male albino mice (NMRI, 25-35 g, Iffa Credo, Belgium).
In the formalin test the first (early) phase (0-15 minutes after the formalin injection) and the second (late) phase (15-60 minutes after the formalin injection) differ (D. Dubuisson et al., Pain, Vol. 4, pp. 161-174 (1977)). The early phase, being a direct reaction to the formalin injection, constitutes a model for acute pain, whereas the late phase is regarded as a model for persistent (chronic or inflammatory) pain (T. J. Coderre et al., Pain, Vol. 52, pp. 259-285 (1993)).
The compounds according to the invention were investigated in the second phase of the formalin test in order to obtain information on the effects of substances in chronic/inflammatory pain.
By means of a single subcutaneous formalin injection (20 μl, 1% aqueous solution) into the dorsal side of the right-hand rear paw, a nociceptive reaction was induced in unconstrained experimental animals, manifested in a noticeable licking and biting of the affected paw. The nociceptive behavior during the investigation period in the second (late) phase of the formalin test was continuously monitored by observing the animals. The pain reaction was quantified by totalling the time in seconds during which the animals continued to lick and bite the affected paw during the investigation period. After injecting substances that have an antinociceptive effect in the formalin test, the aforedescribed behavior pattern of the animals is reduced or possibly even eliminated. Corresponding to the substance tests, in which the animals had been injected with the test substance before formalin, the control animals were injected with a vehicle, i.e. solvent (e.g. 0.9% NaCl solution) before the formalin injection. The behavior of the animals after administration of the substance (n=10 per substance dose) was compared with a control group (n=10).
Based on the quantification of the pain reaction, the effect of the substance in the formalin test was determined as the change in the control in percentage terms. The ED50 calculations were carried out by means of regression analysis. The application time before the formalin injection (intraperitoneally: 15 minutes, intravenously: 5 minutes) was chosen depending on the type of application of the compounds according to the invention.

cold-induced allodynia = test: Bennett model, neuropathic pain in rats (cold-induced allodynia); format: in vivo; conditions: rat; for AUD: over 1 hour, *** p≦0.001
Procedure: The effectiveness in neuropathic pain was investigated using the Bennett model (Chronic Constriction Injury: Bennett and Xie, 1988, Pain 33: 87-107).
The right sciatic nerve of Sprague-Dawley rats weighing 140-160 g anaesthetised with nembutal was loosely ligatured in four places. The animals develop an hypersensitivity in the paw inervated by the damaged nerve, which after a one-week healing phase is quantified over about four weeks by means of a 4° C. cold metal plate (cold-induced allodynia). The animals are observed for a period of 2 minutes on this plate and the number of contractive reactions of the damaged paw is measured. The effect of the substance is determined at four times over a period of 1 hour (15, 30, 45 and 60 minutes after application) with reference to the baseline value before application of the substance and the resulting area under the curve (AUD) as well as the inhibition of the cold-induced allodynia at the individual measuring points is expressed as a percentage inhibition with respect to the vehicle control (AUD) and to the starting value (individual measurement points). The group size is n=10, and the significance of an anti-allodynic action is determined on the basis of the AUD values over a paired Test (* 0.05≧p>0.01; ** 0.01≧p>0.001; *** p≦0.001; Armitage and Berry, 1987, Stat. Methods in Medical Research, London: Blackwell Scientific Publications).

gabapentin binding site = test: Gabapentin binding assay (displacement of gabapentin from its binding site); conditions: displacement of gabapentin; hydrochloride; read-out: Affinity (IC50)
Procedure: Gabapentin is used in the binding assay in order to determine the binding and affinities of the selected compounds. The affinity of the compounds according to the invention is measured via the displacement of gabapentin from its binding site.

[3] = tested on: mechanical hyperalgesia after paw incision; test: Mechanical hyperalgesia after paw incision in rats (paw incision model); format: in vivo; conditions: rat, 464 mg/kg i.p.
Procedure: In this model the wound pain in the tissue surrounding an incision in the plantar side of a rear rat paw is investigated as a model of post-operative pain (Brennan, T. J., Vandermeulen, E. P., Gebhart, G. F., Pain (1996) 493-501). For this purpose the retraction latency after punctiform mechanical stimulation with an electronic von Frey filament is determined. After the paw incision a mechanical hyperalgesia develops, which remains stable over several days.
Male Sprague Dawley rats (bodyweight 200-300 g) are used. Under halothane anaesthesia a 1 cm-long incision is made starting 0.5 cm from the proximal end of the heel, through the skin, fascia and plantaris muscle, and closed with two stitches.
The retraction threshold of the paw expressed in grams after punctiform mechanical stimulation is determined using an electronic von Frey filament (Digital Transducer Indicator Model 1601C, IITC Inc.). For this purpose the retraction threshold per measurement point is measured five times at intervals of 30 seconds and the individual median value is determined, on the basis of which the mean value of the animal cohort is in turn calculated. […]
In order to investigate primary hyperalgesia, the retraction threshold is determined on the ipsilateral paw in the immediate vicinity of the incision as well as in the same position on the contralateral paw. […]

[4] = mouse, i.v., 10 minutes before phenylquinone

| SMILES | ED50 [1, 4] | ED50 ([2]; iv, mouse, i.v., second phase) | Change Compared to Control (%) (cold-induced allodynia; 46.4 mg/kg i.p.) | AUD (cold-induced allodynia; 46.4 mg/kg i.p.) | Change Compared to Control (%) (cold-induced allodynia; 100 mg/kg i.p.) | AUD (cold-induced allodynia; 100 mg/kg i.p.) | IC50 (gabapentin binding site) | % MPE (Maximal Possible Effect) [3] | ED50 ([1]; Mus musculus) | ED50 ([2]; Mus musculus) | Change Compared to Control (%) (cold-induced allodynia; 464 mg/kg i.p.) | AUD (cold-induced allodynia; 464 mg/kg i.p.) |
| --- | --- | --- | --- | --- | --- | --- | --- | --- | --- | --- | --- | --- |
| CCCCCC(C)(S)C(N)C(=O)O.Cl (racemic) [Compound 4, rac-2-amino-3-mercapto-3-methyloctanoic acid hydrochloride] | 12 mg/kg | 67 mg/kg | 32.5% | 1893.1 ± 284.6*** | 66.9% | 3603.1 ± 228.1*** | 186 nM |  |  |  |  |  |
| CCCCCCCC(C)(S)C(N)C(=O)O.Cl (racemic) [Compound 6, rac-2-amino-3-mercapto-3-methyldecanoic acid hydrochloride] | 35 mg/kg | 66 mg/kg |  |  |  |  | 199 nM | 27% MPE (464 mg/kg) i.p. |  |  |  |  |
| NCC1(CC(=O)O)CCCCC1 [Gabapentin, gabapentin, reference compound] |  |  |  |  | 34.5% | 1940.3 ± 139.7*** |  |  | 38 mg/kg | 79 mg/kg | 47.3% | 2577.8 ± 147.4*** |
